Data published in paper PMC8955938, “c-Myc Protein Level Affected by Unsymmetrical Bisacridines Influences Apoptosis and Senescence Induced in HCT116 Colorectal and H460 Lung Cancer Cells” (International Journal of Molecular Sciences, 2022).

Tests used:
[1] = tested on: H460 cells; experiment: Apoptosis in H460, summary of all conducted experiments; type: cell-based, human; settings: H460, IC90 doses, 120 h, summary in discussion
Procedure: Nuclear morphology was examined under a fluorescence microscope (OLYMPUS BX60, […]) after staining with Hoechst 33342. Briefly, after drug treatment, HCT116, H460, CCD 841 CoN and MRC-5 cells were spun onto microscopic slides, fixed with methanol:acetic acid (3:1) for 15 min and stained with Hoechst 33342 (1 mg/mL) for 15 min. Cells were regarded as apoptotic based on the presence of condensed, fragmented chromatin. Enlarged cells containing multiple nuclei were considered as typical of mitotic catastrophe.
Annexin V–FITC binding was performed with an Annexin-V Fluos Staining kit (BD Biosciences, San Jose, CA, USA) according to manufacturer’s protocol. […] Cells were incubated for 15 min at room temperature in the dark, then diluted with 400 µL of binding buffer and analyzed by flow cytometry with FACS Accuri C6 (BD, San Jose, CA, USA). Cells with low FITC and PI fluorescence were considered viable. Cells that presented high FITC fluorescence but low PI fluorescence were regarded as early apoptotic. Late apoptotic cells presented high FITC and PI fluorescence. Necrotic cells had low FITC fluorescence and high PI fluorescence.
Caspase-3 activity was determined using Alexa Fluor 647-conjugated anti-active caspase-3 antibody (BD Biosciences, San Diego, CA, USA) according to the manufacturer’s instructions. […]

[2] = tested on: MYC gene expression in HCT116 cells; experiment: RT-PCR MYC expression in HCT116; type: cell-based, human; settings: HCT116, IC90 doses, 120 h, 2^-ΔΔCt
Procedure: HCT116, H460, CCD 841 CoN and MRC-5 cells after treatment with UAs were collected, washed twice with ice-cold PBS and resuspended in […] of PBS. mRNA was isolated using High Pure RNA Isolation Kit according to the manufacturer’s instructions (Roche, Basel, Switzerland). Briefly, cells were lysed in lysis-binding buffer and transferred to a filter tube. Contaminating DNA was removed by 15 min incubation of the filter tube with DNase I solution. The filter tube was washed once with buffer I and twice with buffer II, and after centrifugation, total RNA was eluted using the elution buffer. RNA concentration was determined by NanoDrop One (Thermo Scientific); 1 µg of RNA was reverse transcribed using Transcriptor First Strand cDNA Synthesis Kit according to the manufacturer’s instructions (Roche) in 20 µL of reaction containing 1 µg of RNA, […] anchored-oligo(dT)18Primer, 8 mM MgCl2, 20 U of Protector RNase Inhibitor, deoxynucleotide mix (1 mM each) and 22 U of Transcriptor Reverse Transcriptase. The reverse transcription reaction was carried out for 30 min at 55 °C and stopped by heating to 85 °C for 5 min and placing on ice. The cDNA solution was stored at −20 °C until use. […] The relative expression level of MYC and KRAS was quantified using comparative method […]. The results were obtained from three independent experiments, each of which was analyzed at least twice.

[3] = tested on: HCT116 spheroids; design: method as in PMID 34684841; settings: HCT116 3D spheroids; cited from earlier work
[4] = tested on: H460 cells; experiment: Accelerated senescence (SA-β-gal), H460; type: cell-based, human; settings: H460, IC90 doses, 72 and 120 h
Procedure: The accelerated senescence examination was based on the analysis of pH 6.0-dependent β-galactosidase (SA-β-gal) expression together with senescence-related morphology, such as enlarged and flattened cells. HCT116 and H460 cells were seeded in 60 mm plates containing microscope coverslips and treated with UAs for up to 120 h. After the treatment, coverslips with attached cells were moved to 35 mm dishes, washed twice with PBS and fixed with […] for 5 min. The cells were then washed twice with PBS (pH 6.0) and incubated at pH 6.0 with X-gal (5-bromo-4-chloro-3-indolyl-β-D-[…], substrate for SA-β-gal) staining solution (1 mg/mL X-gal, 40 mmol/L citric acid/sodium phosphate, pH 6.0, 5 mmol/L potassium ferrocyanide, 5 mmol/L potassium ferricyanide, 150 mmol/L NaCl, 2 mmol/L MgCl2). Following overnight incubation at 37 °C, cells were washed twice with PBS and observed under a light microscopy (OLYMPUS BX60; magnification ×200).

Row | SMILES | treated cells that underwent apoptosis [1] | MYC expression, fold increase [2] | inhibition of spheroids growth [3] | accelerated senescence (SA-β-gal blue staining) [4]
1 | Cc1ccc([N+](=O)[O-])c2c(NCCCN(C)CCCNc3ccc4ncn5c6ccc(O)cc6c(=O)c3c45)c3ccccc3nc12 [Compound C-2045] | about 60% | 5.3 fold | – | –
2 | O=c1c2ccccc2n2cnc3ccc(NCCCN4CCN(CCCNc5c6ccccc6nc6cccc([N+](=O)[O-])c56)CC4)c1c32 [Compound C-2041] | – | 3.3 fold | to the least extent | –
3 | Cc1ccc([N+](=O)[O-])c2c(NCCCN(C)CCCNc3ccc4ncn5c6ccccc6c(=O)c3c45)c3ccccc3nc12 [Compound C-2053] | about 60% | – | to the greatest extent | least profound changes
4 | CN(CCCNc1c2ccccc2nc2cccc([N+](=O)[O-])c12)CCCNc1ccc2ncn3c4ccccc4c(=O)c1c23 [Compound C-2028] | – | – | – | induced senescence to the highest extent
